# Experimental data published in US7241775B2, “Composition, process of making, and medical use of substituted 4-phenyltetrahydroisoquinolines” (Sanofi-Aventis Deutschland GmbH, priority 2003, dated 2007).
# Counter-ions that a name gives are not always drawn.
# Target: T1, NHE3 (Homo sapiens, UniProt P48764)
# T1 sequence (P48764 26-834): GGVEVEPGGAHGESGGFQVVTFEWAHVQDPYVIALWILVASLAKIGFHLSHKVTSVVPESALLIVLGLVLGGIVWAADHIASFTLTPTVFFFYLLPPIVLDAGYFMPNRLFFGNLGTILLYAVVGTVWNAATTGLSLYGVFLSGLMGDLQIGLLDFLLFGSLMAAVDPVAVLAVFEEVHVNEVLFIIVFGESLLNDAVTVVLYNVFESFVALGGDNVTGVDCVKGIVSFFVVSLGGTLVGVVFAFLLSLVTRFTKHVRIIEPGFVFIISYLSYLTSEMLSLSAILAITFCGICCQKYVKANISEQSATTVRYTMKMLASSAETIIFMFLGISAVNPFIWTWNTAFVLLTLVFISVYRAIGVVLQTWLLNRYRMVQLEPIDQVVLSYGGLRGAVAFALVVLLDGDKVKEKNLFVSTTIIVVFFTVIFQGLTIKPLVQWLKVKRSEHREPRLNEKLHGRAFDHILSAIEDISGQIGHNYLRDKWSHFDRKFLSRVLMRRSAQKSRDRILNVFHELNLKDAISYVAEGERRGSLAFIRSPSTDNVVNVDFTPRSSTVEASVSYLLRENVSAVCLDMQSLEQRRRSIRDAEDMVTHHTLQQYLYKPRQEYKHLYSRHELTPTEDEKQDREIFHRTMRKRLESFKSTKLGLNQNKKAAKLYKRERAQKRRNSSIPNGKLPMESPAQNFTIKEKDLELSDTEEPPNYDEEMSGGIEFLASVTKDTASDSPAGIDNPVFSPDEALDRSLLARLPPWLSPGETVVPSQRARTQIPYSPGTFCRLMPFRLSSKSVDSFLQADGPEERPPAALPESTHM
# Test: Recovery of intracellular pH (pHi) after acidification, BCECF fluorescence, NHE3
# Format: cell-based
# Conditions: inhibition of pH recovery after intracellular acidification; rate registered at three minutes for NHE3; bicarbonate-free
# Procedure: Pharmacological Data: Test Description:
# This test determines the recovery of the intracellular pH (pHi) after acidification, and this recovery occurs in the case of functional NHE even under bicarbonate-free conditions. To this end, the pHi was determined using the pH-sensitive fluorescent dye BCECF (Calbiochem, the BCECF-AM precursor was used). The cells were initially loaded with BCECF. The BCECF fluorescence was determined in a Ratio Fluorescence Spectrometer (Photon Technology International, South Brunswick, N.J., USA) at excitation wavelengths of 505 and 440 nm and an emission wavelength of 535 nm and converted to the pHi by means of calibration curves. The cells had already been incubated in NH4Cl buffer (pH 7.4) in the course of the BCECF loading (NH4Cl buffer: 115 mM NaCl, 20 mM NH4Cl, 5 mM KCl, 1 mM CaCl2, 1 mM MgSO4, 20 mM Hepes, 5 mM glucose, 1 mg/ml BSA; a pH of 7.4 was established using 1 M NaOH). The intracellular acidification was induced by adding 975 μl of an NH4Cl-free buffer (see below) to 25 μl aliquots of the cells incubated in NH4Cl buffer. The subsequent rate of the pH recovery was registered at 2 minutes for NHE1, at 5 minutes for NHE2 and at three minutes for NHE3. For the calculation of the inhibitory potency of the tested substances, the cells were initially investigated in buffers in which complete or absolutely no pH recovery took place. For complete pH recovery (100%), the cells were incubated in Na^+-containing buffer (133.8 mM NaCl, 4.7 mM KCl, 1.25 mM CaCl2, 1.25 mM MgCl2, 0.97 mM Na2HPO4, 0.23 mM NaH2PO4, 5 mM Hepes, 5 mM glucose, a pH of 7.0 was established using 1 M NaOH). For the determination of the 0% value, the cells were incubated in an Na^+-free buffer (133.8 mM choline chloride, 4.7 mM KCl, 1.25 mM CaCl2, 1.25 mM MgCl2, 0.97 mM K2HPO4, 0.23 mM KH2PO4, 5 mM Hepes, 5 mM glucose, a pH of 7.0 was established using 1 M NaOH). The substances to be tested were made up in the Na^+-containing buffer. The recovery of the intracellular pH at each tested concentration of a substance was expressed in percent of the maximum recovery. The percentages of the pH recovery were used to calculate the IC50 value of the particular substance for the individual NHE subtypes by means of the program Sigma-Plot.
row,IC50,Compound
1,3.6 nM,"CN1Cc2c(Cl)cc(Cl)cc2C(c2cccc(NC(=O)[C@H](O)[C@@H](O)[C@H](O)[C@H](O)CO)c2)C1 (stereo partly drawn) [Example 2, N-[3-(6,8-dichloro-2-methyl-1,2,3,4-tetrahydroisoquinolin-4-yl)phenyl]-(2R,3S,4R,5R)-2,3,4,5,6-pentahydroxyhexanamide]"
2,17.6 nM,"CN1Cc2c(Cl)cc(Cl)cc2C(c2cccc(NC(=O)N[C@@H](CC(N)=O)C(=O)O)c2)C1 (stereo partly drawn) [Example 13, {N-[3-(6,8-dichloro-2-methyl-1,2,3,4-tetrahydroisoquinolin-4-yl)phenyl]-N′-(1-carboxy-4-aminocarboxy-2S-butyl)}urea hydrochloride]"
3,159 nM,"CN1Cc2c(Cl)cc(Cl)cc2C(c2cccc(C(=O)N[C@@H](CO)C(=O)O)c2)C1 (stereo partly drawn) [Example 16, (S)-2-[3-(6,8-dichloro-2-methyl-1,2,3,4-tetrahydroisoquinolin-4-yl)benzoylamino]-3-hydroxypropionic acid hydrochloride]"
4,29.1 nM,"CN1Cc2c(Cl)cc(Cl)cc2C(c2ccc(NC(=O)[C@@H](N)CCCNC(=N)N)cc2)C1 (stereo partly drawn) [Example 31, N-[4-(6,8-dichloro-2-methyl-1,2,3,4-tetrahydroisoquinolin-4-yl)phenyl]-(S)-2-amino-5-guanidinopentanamide trifluoroacetate]"
